From patent publication US20200101068A1, “Heteroaryl Derivatives as PARP Inhibitors” (Lupin Limited, priority 2015, published 2020)

Target: T1, PARP1 (Homo sapiens, UniProt P09874)
T1 construct: purchased BPS Bioscience
Test: PARP1 biochemical assay (BPS Bioscience kit, chemiluminescent)
Conditions: histone-coated plate, biotinylated NAD+, 60 min at 25° C., luminescence; read-out: PARP 1 inhibition IC50
Method: Example 16: PARP1 Biochemical Assay
The assay was performed using BPS Bioscience kit. The 96-well strip plate was coated with 50 μl of histone mixture and incubated at 4° C. overnight. The next day, the wells were blocked by adding 100 μl of blocking buffer. The plate was washed and 25 μl of appropriate concentration of PARP1 (25-75 ng/well) was added in all of the Test and Positive control wells. In the Negative control wells, the enzyme was replaced with 25 μl of water. 5 μl each of 10× PARP assay buffer and activated DNA was added in all the wells (Test, Positive and Negative control wells). 10× concentration of the test compounds were prepared and 5 μl test compounds were added to the respective wells. The reaction volume was made up to 45 μl by adding water to all of the wells. 5 μl of 10× PARP assay mixture containing biotinilated NAD^+ was added in each well and the plate was incubated at ambient temperature (25° C.) for 60 min. After washing the plate 50 μl of Streptavidin-HRP was added in each well, the plate was incubated at RT for 30 min. The plate was washed and the luminescence was read in PHERAStar plate reader after adding 100 μl of chemiluminescent substrate.
PARP inhibition was calculated using the following formula:
% PARP inhibition=100−[(RLU test compound treated sample−RLU negative control)/(RLU Positive control−RLU negative control)×100]
IC50 values were calculated by plotting % inhibition against the respective concentrations of test compounds using GraphPad Prism 5.

T1 sequence (P09874 whole entry): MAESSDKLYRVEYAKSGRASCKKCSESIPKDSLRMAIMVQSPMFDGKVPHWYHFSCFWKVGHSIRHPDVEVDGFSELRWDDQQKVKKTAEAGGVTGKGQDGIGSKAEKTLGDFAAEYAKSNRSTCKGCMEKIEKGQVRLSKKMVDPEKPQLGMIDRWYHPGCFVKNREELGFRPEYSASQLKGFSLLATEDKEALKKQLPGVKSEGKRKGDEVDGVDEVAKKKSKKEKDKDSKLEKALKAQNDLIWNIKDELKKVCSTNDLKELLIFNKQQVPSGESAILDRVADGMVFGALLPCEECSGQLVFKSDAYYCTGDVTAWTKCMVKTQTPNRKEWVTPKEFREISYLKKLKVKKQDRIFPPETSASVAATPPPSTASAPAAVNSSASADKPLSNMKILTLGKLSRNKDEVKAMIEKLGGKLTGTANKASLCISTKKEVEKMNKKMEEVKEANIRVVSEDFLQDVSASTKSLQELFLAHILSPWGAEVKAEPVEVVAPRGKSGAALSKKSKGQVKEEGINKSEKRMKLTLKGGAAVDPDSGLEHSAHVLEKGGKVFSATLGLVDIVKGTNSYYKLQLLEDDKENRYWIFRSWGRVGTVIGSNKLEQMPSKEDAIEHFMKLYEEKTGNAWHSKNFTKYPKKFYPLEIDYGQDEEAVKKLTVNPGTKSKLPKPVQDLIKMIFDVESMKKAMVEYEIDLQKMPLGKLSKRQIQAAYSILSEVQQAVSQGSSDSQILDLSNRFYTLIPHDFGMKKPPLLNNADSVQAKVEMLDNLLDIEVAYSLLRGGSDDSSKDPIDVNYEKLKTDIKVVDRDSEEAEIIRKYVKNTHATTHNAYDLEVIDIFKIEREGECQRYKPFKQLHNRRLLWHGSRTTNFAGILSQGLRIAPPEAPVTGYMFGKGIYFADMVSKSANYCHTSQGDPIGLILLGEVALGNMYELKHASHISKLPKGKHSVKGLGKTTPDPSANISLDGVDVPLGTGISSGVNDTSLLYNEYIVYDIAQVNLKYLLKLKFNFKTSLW

CNC(=O)c1ccc(N2CCN([C@H]3C=C(c4cc5ncccc5c(=O)[nH]4)CC3)CC2)cc1 [Compound 18, (R)—N-methyl-4-(4-(3-(5-oxo-5,6-dihydro-1,6-naphthyridin-7-yl)cyclopent-2-en-1-yl)piperazin-1-yl)benzamide] was tested, and the IC50 was 0.5 to 5 nM.

NC(=O)c1ccc(N2CCN([C@H]3C=C(c4cc5ncccc5c(=O)[nH]4)CC3)CC2)cc1 [Compound 19, (R)-4-(4-(3-(5-oxo-5,6-dihydro-1,6-naphthyridin-7-yl)cyclopent-2-en-1-yl)piperazin-1-yl)benzamide] showed an IC50 of 0.5 to 5 nM.

In the case of CCOC(=O)c1ccc(N2CCN([C@H]3C=C(c4cc5ncccc5c(=O)[nH]4)CC3)CC2)cc1 [Compound 20, Ethyl (R)-4-(4-(3-(5-oxo-5,6-dihydro-1,6-naphthyridin-7-yl)cyclopent-2-en-1-yl)piperazin-1-yl)benzoate], the IC50 is reported as 0.5 to 5 nM.

In the case of O=c1[nH]c(C2=C[C@H](N3CCN(c4ccccc4)CC3)CC2)cc2ncccc12 [Compound 21, (R)-7-(3-(4-phenylpiperazin-1-yl)cyclopent-1-en-1-yl)-1,6-naphthyridin-5(6H)-one], the IC50 is reported as 0.5 to 5 nM.

With O=c1[nH]c(C2=C[C@H](N3CCN(c4ccc(F)cc4)CC3)CC2)cc2ncccc12 [Compound 22, (R)-7-(3-(4-(4-fluorophenyl)piperazin-1-yl)cyclopent-1-en-1-yl)-1,6-naphthyridin-5(6H)-one] the IC50 was 0.5 to 5 nM.

Molecule N#Cc1ccc(N2CCN([C@H]3C=C(c4cc5ncccc5c(=O)[nH]4)CC3)CC2)c(F)c1 [Compound 23, (R)-3-fluoro-4-(4-(3-(5-oxo-5,6-dihydro-1,6-naphthyridin-7-yl)cyclopent-2-en-1-yl)piperazin-1-yl)benzonitrile] has an IC50 of 0.5 to 5 nM.

Work on O=c1[nH]c(C2=C[C@H](N3CCN(c4ccc(Cl)cc4)CC3)CC2)cc2ncccc12 [Compound 24, (R)-7-(3-(4-(4-chlorophenyl)piperazin-1-yl)cyclopent-1-en-1-yl)-1,6-naphthyridin-5(6H)-one] yielded an IC50 of 0.5 to 5 nM.

COc1ccc(N2CCN([C@H]3C=C(c4cc5ncccc5c(=O)[nH]4)CC3)CC2)cc1 [Compound 25, (R)-7-(3-(4-(4-methoxyphenyl)piperazin-1-yl)cyclopent-1-en-1-yl)-1,6-naphthyridin-5(6H)-one] gave an IC50 of 0.5 to 5 nM.

Work on Cc1ccc(N2CCN([C@H]3C=C(c4cc5ncccc5c(=O)[nH]4)CC3)CC2)cc1 [Compound 26, (R)-7-(3-(4-(p-tolyl)piperazin-1-yl)cyclopent-1-en-1-yl)-1,6-naphthyridin-5(6H)-one] yielded an IC50 of 0.5 to 5 nM.

Molecule CNc1ccc(N2CCN([C@H]3C=C(c4cc5ncccc5c(=O)[nH]4)CC3)CC2)cc1 [Compound 27, (R)-7-(3-(4-(4-(methylamino)phenyl)piperazin-1-yl)cyclopent-1-en-1-yl)-1,6-naphthyridin-5(6H)-one] has an IC50 of 5.1 to 50 nM.

CC(=O)c1ccc(N2CCN([C@H]3C=C(c4cc5ncccc5c(=O)[nH]4)CC3)CC2)cc1 [Compound 28, (R)-7-(3-(4-(4-acetylphenyl)piperazin-1-yl)cyclopent-1-en-1-yl)-1,6-naphthyridin-5(6H)-one] gave an IC50 of 0.5 to 5 nM.

O=C1CCc2cc(N3CCN([C@H]4C=C(c5cc6ncccc6c(=O)[nH]5)CC4)CC3)ccc21 [Compound 29, (R)-7-(3-(4-(1-oxo-2,3-dihydro-1H-inden-5-yl)piperazin-1-yl)cyclopent-1-en-1-yl)-1,6-naphthyridin-5(6H)-one] was tested, and the IC50 was 0.5 to 5 nM.

O=c1[nH]c(C2=C[C@H](N3CCN(c4ccc5c(c4)CCC5)CC3)CC2)cc2ncccc12 [Compound 30, (R)-7-(3-(4-(2,3-dihydro-1H-inden-5-yl)piperazin-1-yl)cyclopent-1-en-1-yl)-1,6-naphthyridin-5(6H)-one] gave an IC50 of 0.5 to 5 nM.

O=C1OCc2cc(N3CCN([C@H]4C=C(c5cc6ncccc6c(=O)[nH]5)CC4)CC3)ccc21 [Compound 31, (R)-7-(3-(4-(1-oxo-1,3-dihydroisobenzofuran-5-yl)piperazin-1-yl)cyclopent-1-en-1-yl)-1,6-naphthyridin-5(6H)-one] showed an IC50 of 0.5 to 5 nM.

With O=C1NCc2cc(N3CCN([C@H]4C=C(c5cc6ncccc6c(=O)[nH]5)CC4)CC3)ccc21 [Compound 32, (R)-7-(3-(4-(1-oxoisoindolin-5-yl)piperazin-1-yl)cyclopent-1-en-1-yl)-1,6-naphthyridin-5(6H)-one] the IC50 was 0.5 to 5 nM.

With O=c1[nH]c(C2=C[C@H](N3CCN(c4ccc(C(F)(F)F)cc4)CC3)CC2)cc2ncccc12 [Compound 33, (R)-7-(3-(4-(4-(trifluoromethyl)phenyl)piperazin-1-yl)cyclopent-1-en-1-yl)-1,6-naphthyridin-5(6H)-one] the IC50 was 5.1 to 50 nM.

N#Cc1ccc(N2CCN([C@H]3C=C(c4cc5ncccc5c(=O)[nH]4)CC3)CC2)nc1 [Compound 34, (R)-6-(4-(3-(5-oxo-5,6-dihydro-1,6-naphthyridin-7-yl)cyclopent-2-en-1-yl)piperazin-1-yl)nicotinonitrile] was tested, and the IC50 was 0.5 to 5 nM.

With N#Cc1cnc(N2CCN([C@H]3C=C(c4cc5ncccc5c(=O)[nH]4)CC3)CC2)s1 [Compound 35, (R)-2-(4-(3-(5-oxo-5,6-dihydro-1,6-naphthyridin-7-yl)cyclopent-2-en-1-yl)piperazin-1-yl)thiazole-5-carbonitrile] the IC50 was 0.5 to 5 nM.

With N#Cc1ccc(N2CCN([C@H]3C=C(c4cc5cnccc5c(=O)[nH]4)CC3)CC2)cc1 [Compound 36, (R)-4-(4-(3-(1-oxo-1,2-dihydro-2,6-naphthyridin-3-yl)cyclopent-2-en-1-yl)piperazin-1-yl)benzonitrile] the IC50 was 0.5 to 5 nM.

In the case of N#Cc1ccc(N2CCN([C@H]3C=C(c4cc5cccnc5c(=O)[nH]4)CC3)CC2)cc1 [Compound 37, (R)-4-(4-(3-(8-oxo-7,8-dihydro-1,7-naphthyridin-6-yl)cyclopent-2-en-1-yl)piperazin-1-yl)benzonitrile], the IC50 is reported as 0.5 to 5 nM.

N#Cc1ccc(N2CCN([C@H]3C=C(c4cc5ccncc5c(=O)[nH]4)CC3)CC2)cc1 [Compound 38, (R)-4-(4-(3-(1-oxo-1,2-dihydro-2,7-naphthyridin-3-yl)cyclopent-2-en-1-yl)piperazin-1-yl)benzonitrile] showed an IC50 of 0.5 to 5 nM.

Work on O=c1[nH]c(C2=C[C@H](N3CCN(c4ccc(F)cc4F)CC3)CC2)cc2ncccc12 [Compound 39, (R)-7-(3-(4-(2,4-difluorophenyl)piperazin-1-yl)cyclopent-1-en-1-yl)-1,6-naphthyridin-5(6H)-one] yielded an IC50 of 0.5 to 5 nM.

N#Cc1ccc(N2CCN([C@H]3C=C(c4cc5ncncc5c(=O)[nH]4)CC3)CC2)cc1 [Compound 40, (R)-4-(4-(3-(5-oxo-5,6-dihydropyrido[4,3-d]pyrimidin-7-yl)cyclopent-2-en-1-yl)piperazin-1-yl)benzonitrile] gave an IC50 of 0.5 to 5 nM.

For N#Cc1ccc(N2CCN([C@H]3C=C(c4cc5nccnc5c(=O)[nH]4)CC3)CC2)cc1 [Compound 41, (R)-4-(4-(3-(5-oxo-5,6-dihydropyrido[3,4-b]pyrazin-7-yl)cyclopent-2-en-1-yl)piperazin-1-yl)benzonitrile], the IC50 was 5.1 to 50 nM.

N#Cc1ccc(N2CCN([C@H]3C=C(c4cc5sccc5c(=O)[nH]4)CC3)CC2)cc1 [Compound 42, (R)-4-(4-(3-(4-oxo-4,5-dihydrothieno[3,2-c]pyridin-6-yl)cyclopent-2-en-1-yl)piperazin-1-yl)benzonitrile] gave an IC50 of 0.5 to 5 nM.

N#Cc1ccc(N2CCN([C@H]3C=C(c4cc5ncsc5c(=O)[nH]4)CC3)CC2)cc1 [Compound 43, (R)-4-(4-(3-(4-oxo-4,5-dihydrothiazolo[5,4-c]pyridin-6-yl)cyclopent-2-en-1-yl)piperazin-1-yl)benzonitrile] gave an IC50 of 0.5 to 5 nM.

N#Cc1ccc(N2CCN([C@H]3C=C(c4cc5scnc5c(=O)[nH]4)CC3)CC2)cc1 [Compound 44, (R)-4-(4-(3-(4-oxo-4,5-dihydrothiazolo[4,5-c]pyridin-6-yl)cyclopent-2-en-1-yl)piperazin-1-yl)benzonitrile] was tested, and the IC50 was 0.5 to 5 nM.

For N#Cc1ccc(N2CCN([C@@H]3C=C(c4cc5sccc5c(=O)[nH]4)CC3)CC2)cc1 [Compound 45, (S)-4-(4-(3-(4-oxo-4,5-dihydrothieno[3,2-c]pyridin-6-yl)cyclopent-2-en-1-yl)piperazin-1-yl)benzonitrile], the IC50 was 5.1 to 50 nM.

O=c1[nH]c(C2=C[C@H](N3CCN(c4ccc(F)cc4)CC3)CC2)cc2sccc12 [Compound 47, (R)-6-(3-(4-(4-fluorophenyl)piperazin-1-yl)cyclopent-1-en-1-yl)thieno[3,2-c]pyridin-4(5H)-one] showed an IC50 of 0.5 to 5 nM.

O=c1[nH]c(C2=C[C@H](N3CCN(c4ccccc4)CC3)CC2)cc2sccc12 [Compound 48, (R)-6-(3-(4-phenylpiperazin-1-yl)cyclopent-1-en-1-yl)thieno[3,2-c]pyridin-4(5H)-one] gave an IC50 of 0.5 to 5 nM.

With CNC(=O)c1ccc(N2CCN([C@H]3C=C(c4cc5sccc5c(=O)[nH]4)CC3)CC2)cc1 [Compound 49, (R)—N-methyl-4-(4-(3-(4-oxo-4,5-dihydrothieno[3,2-c]pyridin-6-yl)cyclopent-2-en-1-yl)piperazin-1-yl)benzamide] the IC50 was 0.5 to 5 nM.

N#Cc1ccc(N2CCN([C@H]3C=C(c4cc5sccc5c(=O)[nH]4)CC3)CC2)nc1 [Compound 50, (R)-6-(4-(3-(4-oxo-4,5-dihydrothieno[3,2-c]pyridin-6-yl)cyclopent-2-en-1-yl)piperazin-1-yl)nicotinonitrile] gave an IC50 of 0.5 to 5 nM.
